PMC4865845, “A human genome-wide loss-of-function screen identifies effective chikungunya antiviral drugs” (Nature Communications, 2016)
pIC50: −log10 of the molar value. Read-outs that look alike come from different tables or passages of the source.

Key:
[1] = test system: CHIKV; assay: microbe, parasite or virus in culture; type: cell-based, chikungunya virus; conditions: HEK-293 cells pretreated with dilutions of each drug, CHIKV-GFP, 18 h p.i.
[2] = test system: HEK-293 cells; assay: Cell viability, Cell Proliferation Reagent WST-1; type: cell-based, human; conditions: read-out: WST-1 IC50
Method: To exclude the possible cytotoxic effects, all compounds were additionally tested using the ‘Cell Proliferation Reagent WST-1' (Roche Diagnostics). HEK-293 cells were treated with the same concentrations of the various substances and 18 h later WST-1 was added. Readout was conducted using the EnVision Multilabel Reader (PerkinElmer).

[3] = target: CLK1 (Homo sapiens, UniProt P49759); assay: CLK1 inhibition by capillary electrophoresis in a microfluidic chip system (LabChip3000); type: biochemical
Chain of CLK1 (P49759 whole entry): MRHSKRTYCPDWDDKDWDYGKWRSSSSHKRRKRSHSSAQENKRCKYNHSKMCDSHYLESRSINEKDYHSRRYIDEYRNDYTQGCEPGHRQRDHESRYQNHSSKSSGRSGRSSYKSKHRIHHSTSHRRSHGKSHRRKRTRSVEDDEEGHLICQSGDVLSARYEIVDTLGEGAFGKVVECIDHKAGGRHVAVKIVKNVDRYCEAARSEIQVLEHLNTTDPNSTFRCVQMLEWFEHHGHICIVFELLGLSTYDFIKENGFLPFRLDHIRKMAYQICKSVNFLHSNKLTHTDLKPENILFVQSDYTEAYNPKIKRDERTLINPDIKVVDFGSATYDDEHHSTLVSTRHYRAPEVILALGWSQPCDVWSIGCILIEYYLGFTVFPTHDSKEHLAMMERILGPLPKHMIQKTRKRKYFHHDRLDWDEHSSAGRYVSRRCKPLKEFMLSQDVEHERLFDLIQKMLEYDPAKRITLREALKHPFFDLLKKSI

[4] = test system: CHIKV replicon; assay: CHIKV replicon dual-luciferase assay (genomic and subgenomic vRNA expression); type: cell-based, chikungunya virus; conditions: HeLa cells, inhibitor from 1 h p.i., read 8 h p.i.
[5] = test system: HeLa cells; assay: Real-time cell toxicity assay (xCELLigence)
[6] = test system: CHIKV C21; assay: Quantitative RT-PCR of cell- and supernatant-associated vRNA; type: cell-based, chikungunya virus; conditions: HeLa; for vRNA synthesis (cell-associated vRNA) / viral release in the supernatants (supernatant-associated vRNA): CHIKV C21 MOI 50 for 1 h, then drug 7 h: cerulenin 50 μM, TOFA 25 μM, pimozide 10 μM, W7 20 μM, tivozanib 5 μM; for vRNA replication, delayed treatment / viral release, delayed treatment: CHIKV-infected, drugs from 6 to 8 h p.i.
[7] = test system: HeLa cells; assay: Cell viability, CellTiter-Glo kit; conditions: end of the 1 h infection + 7 h treatment experiment
[8] = test system: CHIKV C21; assay: Intradermal CHIKV infection model of neonatal mice
[9] = test system: CHIKV; type: cell-based, chikungunya virus
[10] = 0.5 mg kg−1 per os daily from day 7, infected at day 9, continued 21 days

Question: What does the source list for `O=c1cc(-c2ccccc2)oc2ccc(O)cc12` [6-Hydroxyflavone]?
Answer: pIC50 ([1]; Chikungunya virus, HEK293): 5.59; pIC50 ([2]; Homo sapiens, HEK293, 18 h): < 4.22

Question: What does the source list for `C=CC/C=C\C/C=C\CCCCCCCc1cccc(O)c1C(=O)O` [(15:3)-Anacardic acid]?
Answer: pIC50 [1]: 6.24; pIC50 ([2]; HEK-293 cell viability, 18 h, * = treatment induced <50% cell death): 5.57

Question: Which results are given for `O=C1Cc2c([nH]c3ccc([N+](=O)[O-])cc23)-c2ccccc2N1` [Alsterpaullone]?
Answer: pIC50 ([1]; Chikungunya virus, HEK293): 8.70; pIC50 ([2]; Homo sapiens, HEK293, 18 h): 4.35

Question: How did the pIC50 ([1]; Chikungunya virus, HEK293) turn out when `CCCCn1c2cc(OC)c(Cl)cc2c2ccnc(C)c21` [AnnH14, 9-butyl-6-chloro-7-methoxy-1-methyl-9H-pyrido[3,4-b]indole] was run?
Answer: 5.81

Question: What about the pIC50 ([2]; Homo sapiens, HEK293, 18 h) of the same compound?
Answer: 4.98

Question: And the pIC50 [3]?
Answer: 5.30

Question: `COc1ccc2c(c1)[nH]c1c(/C=C/c3ccccc3)nccc12` [AnnH18, (E)-7-methoxy-1-(2-phenylethen-1-yl)-9H-pyrido[3,4-b]indole] was tested. Which pIC50 ([1]; Chikungunya virus, HEK293) did it give?
Answer: 5.99

Question: And the pIC50 ([2]; Homo sapiens, HEK293, 18 h)?
Answer: 5.04

Question: And the pIC50 [3]?
Answer: 6.24

Question: What does the source list for `COc1ccc(-c2ccccc2)cc1NS(=O)(=O)c1cc(Cl)cc(Cl)c1O` [BMS-303141]?
Answer: genomic and subgenomic vRNA synthesis [4]: significant and dose-dependent reduction; effect on cell viability [5]: no deleterious effect on cell viability

Question: How did the pIC50 ([1]; Chikungunya virus, HEK293) turn out when `C/C=C/C/C=C/CCC(=O)[C@H]1O[C@H]1C(N)=O` [Cerulenin] was run?
Answer: 5.52

Question: What about the pIC50 ([2]; Homo sapiens, HEK293, 18 h) of the same compound?
Answer: 5.12

Question: And the “genomic and subgenomic vRNA synthesis” value [4]?
Answer: significant and dose-dependent reduction

Question: And the “vRNA synthesis (cell-associated vRNA)” value [6]?
Answer: significantly reduced vRNA synthesis

Question: And the “viral release in the supernatants (supernatant-associated vRNA)” value [6]?
Answer: strongly inhibited viral release

Question: And the “vRNA replication, delayed treatment” value [6]?
Answer: only a minor impact on vRNA replication

Question: What about the “viral release, delayed treatment” value [6] of the same compound?
Answer: major defect in viral release

Question: And the cell toxicity [7]?
Answer: no detectable cell toxicity

Question: What about the “effect on cell viability” value [5] of the same compound?
Answer: no deleterious effect on cell viability

Question: `CCOC(=O)C1=C(C)NC(C)=C(C(=O)OC)C1c1cccc(Cl)c1Cl` (centres unmarked) [Felodipine] was tested. Which pIC50 ([1]; Chikungunya virus, HEK293) did it give?
Answer: 5.49

Question: And the pIC50 ([2]; Homo sapiens, HEK293, 18 h)?
Answer: 4.92

Question: What does the source list for `Cc1ccc(F)c(NC(=O)Nc2ccc(-c3cccc4[nH]nc(N)c34)cc2)c1` [Linifanib]?
Answer: pIC50 ([1]; Chikungunya virus, HEK293): 5.67; pIC50 ([2]; Homo sapiens, HEK293, 18 h): < 4.22

Question: How did the pIC50 ([1]; Chikungunya virus, HEK293) turn out when `CCCCCCCCCCC[C@@H](C[C@@H]1OC(=O)[C@H]1CCCCCC)OC(=O)[C@H](CC(C)C)NC=O` [Orlistat] was run?
Answer: 6.09

Question: What about the pIC50 ([2]; Homo sapiens, HEK293, 18 h) of the same compound?
Answer: 5.06

Question: `Cc1ccc(Nc2nccc(N(C)c3ccc4c(C)n(C)nc4c3)n2)cc1S(N)(=O)=O` [Pazopanib] was tested. Which pIC50 ([1]; Chikungunya virus, HEK293) did it give?
Answer: 6.89

Question: What about the pIC50 ([2]; Homo sapiens, HEK293, 18 h) of the same compound?
Answer: 5.88

Question: How did the pIC50 ([1]; Chikungunya virus, HEK293) turn out when `OCCN1CCN(CCCN2c3ccccc3Sc3ccc(Cl)cc32)CC1` [Perphenazine] was run?
Answer: 6.20

Question: What about the pIC50 ([2]; Homo sapiens, HEK293, 18 h) of the same compound?
Answer: 4.62

Question: How did the pIC50 ([1]; Chikungunya virus, HEK293) turn out when `CC(Cc1ccccc1)NCCC(c1ccccc1)c1ccccc1` (centres unmarked) [Prenylamine] was run?
Answer: 5.62

Question: And the pIC50 ([2]; Homo sapiens, HEK293, 18 h)?
Answer: 4.78

Question: With `CNC(=O)c1cc(Oc2ccc(NC(=O)Nc3ccc(Cl)c(C(F)(F)F)c3)cc2)ccn1` [Sorafenib] as the compound, how does the pIC50 ([1]; Chikungunya virus, HEK293) read?
Answer: 5.95

Question: And the pIC50 ([2]; Homo sapiens, HEK293, 18 h)?
Answer: 4.74

Question: How did the pIC50 ([1]; Chikungunya virus, HEK293) turn out when `COc1cc(N2CCC(N3CCN(C)CC3)CC2)ccc1Nc1ncc(Cl)c(Nc2ccccc2S(=O)(=O)C(C)C)n1` [TAE684] was run?
Answer: 6.82

Question: And the pIC50 ([2]; Homo sapiens, HEK293, 18 h)?
Answer: 5.68

Question: With `COc1cc2nccc(Oc3ccc(NC(=O)Nc4cc(C)on4)c(Cl)c3)c2cc1OC` [Tivozanib] as the compound, how does the pIC50 ([1]; Chikungunya virus, HEK293) read?
Answer: 6.10

Question: And the pIC50 ([2]; Homo sapiens, HEK293, 18 h)?
Answer: 5.08

Question: And the “vRNA synthesis (cell-associated vRNA)” value [6]?
Answer: significantly reduced vRNA synthesis

Question: What about the “viral release in the supernatants (supernatant-associated vRNA)” value [6] of the same compound?
Answer: strongly inhibited viral release

Question: What about the “vRNA replication, delayed treatment” value [6] of the same compound?
Answer: only a minor impact on vRNA replication

Question: What about the “viral release, delayed treatment” value [6] of the same compound?
Answer: major defect in viral release

Question: What about the cell toxicity [7] of the same compound?
Answer: no detectable cell toxicity

Question: And the body weight gain [8, 10]?
Answer: positive impact on body weight gain

Question: What about the “mortality of CHIKV-infected mice” value [8, 10] of the same compound?
Answer: significant reduction in mortality

Question: What about the onset of paralysis [8, 10] of the same compound?
Answer: protected from the onset of paralysis

Question: And the “CHIKV viral load in organs” value ([8]; 3 days post infection, 0.5 mg kg−1 per os)?
Answer: significantly reduced CHIKV viral load

Question: With “s38699 (CCAGGAACTATGACACGTA; chemistry not given here)” as the compound, how does the Score_si2 [9] read?
Answer: 0.75

Question: With “s38777 (GGCTCAAACTGGGAGTCAA; chemistry not given here)” as the compound, how does the Score_si2 [9] read?
Answer: 1.07

Question: How did the Score_si4 [9] turn out when “s38778 (CCCTTCCTCTATTCGAACA; chemistry not given here)” was run?
Answer: -0.27

Question: For “s38779 (CCAAGATGACTGTGAATAA; chemistry not given here)”, which Score_si3 [9] is on record?
Answer: 0.42

Question: “s38816 (GAACATCTGGATCAAGAGA; chemistry not given here)” was tested. Which Score_si3 [9] did it give?
Answer: 1.02

Question: For “s38817 (GCAAATCTCTCTATCCTTA; chemistry not given here)”, which Score_si4 [9] is on record?
Answer: 0.06

Question: “s49211 (sense GTTCCTGGGTGTTCACCTA; chemistry not given here)” was tested. Which Score_si4 [9] did it give?
Answer: 0.08

Question: With “s49212 (sense GATCGTTCCTGGGTGTTCA; chemistry not given here)” as the compound, how does the Score_si2 [9] read?
Answer: 0.94

Question: Which Score_si3 [9] does the source give for “s50141 (sense AGATACCTTTATGAATATA; chemistry not given here) [reference compound]” here?
Answer: -0.76

Question: Which Score_si4 [9] does the source give for “s50143 (sense AAATAAATCTGGTGCATTA; chemistry not given here) [reference compound]” here?
Answer: -0.41

Question: With “s50641 (sense ACAACTCTGTGCACAACAA; chemistry not given here)” as the compound, how does the Score_si4 [9] read?
Answer: 0.17

Question: For “s50642 (sense CCTTCATGGTGGGACTGTA; chemistry not given here)”, which Score_si3 [9] is on record?
Answer: 0.69

Question: For “s51651 (sense TGAGCAGTGAGAACCCATA; chemistry not given here)”, which Score_si2 [9] is on record?
Answer: 1.55

Question: With “s51652 (sense CCAGGCCCATTCTACAATA; chemistry not given here)” as the compound, how does the Score_si4 [9] read?
Answer: 0.04

Question: “s51653 (sense GCACCTTGCAGGATTGGAA; chemistry not given here)” was tested. Which Score_si3 [9] did it give?
Answer: 0.68

Question: With “s194444 (sense GCTGCGTCTCCCTTCCAAA; chemistry not given here) [reference compound]” as the compound, how does the Score_si4 [9] read?
Answer: -0.58

Question: “s194476 (sense GCATGCTGCTGGCAGATCA; chemistry not given here)” was tested. Which Score_si2 [9] did it give?
Answer: 1.47

Question: Which Score_si2 [9] does the source give for “s195060 (sense CCAGATCTATGAATTGGAA; chemistry not given here)” here?
Answer: 1.92

Question: “s195061 (sense CTGTATGGCTTCTATATAA; chemistry not given here)” was tested. Which Score_si4 [9] did it give?
Answer: 1.03

Question: With “s195093 (sense AGCTGTCCCTCTTTGCTGT; chemistry not given here) [reference compound]” as the compound, how does the Score_si3 [9] read?
Answer: -0.16

Question: “s195094 (sense CCTCTTCCACCGCTACTTC; chemistry not given here) [reference compound]” was tested. Which Score_si2 [9] did it give?
Answer: -0.76

Question: With “s195100 (sense GGGTGAATGTAGACCCTGA; chemistry not given here)” as the compound, how does the Score_si3 [9] read?
Answer: 1.95

Question: For “s195299 (sense ACACATATGTGATCAAGCT; chemistry not given here)”, which Score_si4 [9] is on record?
Answer: 0.72

Question: With “s195642 (sense GGTGAGGACAAGTTCCAGT; chemistry not given here)” as the compound, how does the Score_si3 [9] read?
Answer: 0.49

Question: “s195643 (sense CCCTAGGCGCTGGATTTTG; chemistry not given here)” was tested. Which Score_si4 [9] did it give?
Answer: 0.23

Question: With “s195938 (sense ATTTATCTCTGCATCGACA; chemistry not given here) [reference compound]” as the compound, how does the Score_si3 [9] read?
Answer: -0.51

Question: “s195939 (sense GCGGCTGATTTATCTCTGC; chemistry not given here) [reference compound]” was tested. Which Score_si4 [9] did it give?
Answer: -0.22
